Assay results from the NIST ThermoML archive (doi:10.1021/je060271a).
± gives the expanded uncertainty stated by the source.

Details: 323.15 K, Liquid, Vibrating tube method

CCCCC(=O)OCC(COC(=O)CCCC)(COC(=O)CCCC)COC(=O)CCCC [pentaerythritol tetrapentanoate]
Details	mass density [kg/m3]
10795 kPa	1002.1 ± 1.2
10820 kPa	1002.2 ± 1.2
10840 kPa	1002.2 ± 1.2
10860 kPa	1002.2 ± 1.2
10885 kPa	1002.2 ± 1.2
10905 kPa	1002.2 ± 1.2
10926 kPa	1002.2 ± 1.2
10951 kPa	1002.2 ± 1.2
10971 kPa	1002.3 ± 1.2
10992 kPa	1002.2 ± 1.2
11018 kPa	1002.3 ± 1.2
11039 kPa	1002.2 ± 1.2
11060 kPa	1002.4 ± 1.2
11085 kPa	1002.4 ± 1.2
11106 kPa	1002.3 ± 1.2
11128 kPa	1002.4 ± 1.2
11153 kPa	1002.4 ± 1.2
11175 kPa	1002.3 ± 1.2
11197 kPa	1002.4 ± 1.2
11223 kPa	1002.5 ± 1.2
11245 kPa	1002.5 ± 1.2
11267 kPa	1002.4 ± 1.2
11289 kPa	1002.5 ± 1.2
11316 kPa	1002.5 ± 1.2
11339 kPa	1002.5 ± 1.2
11366 kPa	1002.7 ± 1.2
11388 kPa	1002.6 ± 1.2
11411 kPa	1002.6 ± 1.2
11434 kPa	1002.6 ± 1.2
11461 kPa	1002.6 ± 1.2
11484 kPa	1002.6 ± 1.2
11534 kPa	1002.6 ± 1.2
11558 kPa	1002.6 ± 1.2
11581 kPa	1002.6 ± 1.2
11610 kPa	1002.5 ± 1.2
11633 kPa	1002.7 ± 1.2
11657 kPa	1002.6 ± 1.2
11681 kPa	1002.7 ± 1.2
11710 kPa	1002.7 ± 1.2
11735 kPa	1002.8 ± 1.2
11759 kPa	1002.7 ± 1.2
11784 kPa	1002.8 ± 1.2
11813 kPa	1002.8 ± 1.2
11838 kPa	1002.8 ± 1.2
11862 kPa	1002.9 ± 1.2
11892 kPa	1002.9 ± 1.2
11917 kPa	1003 ± 1.2
11942 kPa	1002.8 ± 1.2
11971 kPa	1003 ± 1.2
11996 kPa	1003 ± 1.2
12022 kPa	1002.9 ± 1.2
12053 kPa	1003 ± 1.2
12074 kPa	1003.1 ± 1.2
12105 kPa	1003 ± 1.2
12130 kPa	1003 ± 1.2
12156 kPa	1003 ± 1.2
12187 kPa	1003 ± 1.2
12213 kPa	1003.1 ± 1.2
12244 kPa	1003.1 ± 1.2
12271 kPa	1003.1 ± 1.2
12297 kPa	1003.2 ± 1.2
12324 kPa	1003.2 ± 1.2
12355 kPa	1003.2 ± 1.2
12382 kPa	1003.4 ± 1.2
12415 kPa	1003.3 ± 1.2
12442 kPa	1003.1 ± 1.2
12469 kPa	1003.2 ± 1.2
12502 kPa	1003.3 ± 1.2
12529 kPa	1003.4 ± 1.2
12557 kPa	1003.4 ± 1.2
12585 kPa	1003.4 ± 1.2
12618 kPa	1003.2 ± 1.2
12646 kPa	1003.4 ± 1.2
12674 kPa	1003.4 ± 1.2
12736 kPa	1003.4 ± 1.2
12770 kPa	1003.5 ± 1.2
12800 kPa	1003.3 ± 1.2
12828 kPa	1003.6 ± 1.2
12858 kPa	1003.5 ± 1.2
12892 kPa	1003.5 ± 1.2
12922 kPa	1003.7 ± 1.2
12957 kPa	1003.7 ± 1.2
12986 kPa	1003.6 ± 1.2
13016 kPa	1003.7 ± 1.2
13052 kPa	1003.6 ± 1.2
13082 kPa	1003.6 ± 1.2
13112 kPa	1003.7 ± 1.2
13149 kPa	1003.7 ± 1.2
13179 kPa	1003.7 ± 1.2
13210 kPa	1003.7 ± 1.2
13242 kPa	1003.9 ± 1.2
13279 kPa	1003.8 ± 1.2
13310 kPa	1003.9 ± 1.2
13347 kPa	1003.9 ± 1.2
13378 kPa	1003.7 ± 1.2
13410 kPa	1003.9 ± 1.2
13443 kPa	1004 ± 1.2
13482 kPa	1003.9 ± 1.2
13514 kPa	1004 ± 1.2
13548 kPa	1004 ± 1.2
13581 kPa	1004 ± 1.2
13620 kPa	1004 ± 1.2
13654 kPa	1004 ± 1.2
13687 kPa	1004.2 ± 1.2
13727 kPa	1004 ± 1.2
13760 kPa	1004.1 ± 1.2
13794 kPa	1004.2 ± 1.2
13829 kPa	1004.2 ± 1.2
13870 kPa	1004.3 ± 1.2
13945 kPa	1004.2 ± 1.2
13980 kPa	1004.2 ± 1.2
14049 kPa	1004.4 ± 1.2
14091 kPa	1004.3 ± 1.2
14126 kPa	1004.4 ± 1.2
14162 kPa	1004.3 ± 1.2
14284 kPa	1004.4 ± 1.2
14320 kPa	1004.4 ± 1.2
14358 kPa	1004.5 ± 1.2
14402 kPa	1004.5 ± 1.2
14440 kPa	1004.6 ± 1.2
14477 kPa	1004.6 ± 1.2
14515 kPa	1004.6 ± 1.2
14560 kPa	1004.7 ± 1.2
14600 kPa	1004.6 ± 1.2
14639 kPa	1004.7 ± 1.2
14678 kPa	1004.6 ± 1.2
14717 kPa	1004.7 ± 1.2
14764 kPa	1004.7 ± 1.2
14803 kPa	1004.7 ± 1.2
14843 kPa	1004.8 ± 1.2
14891 kPa	1004.9 ± 1.2
14931 kPa	1004.9 ± 1.2
14972 kPa	1005 ± 1.2
15020 kPa	1004.9 ± 1.2
15062 kPa	1004.9 ± 1.2
15103 kPa	1005 ± 1.2
15147 kPa	1005 ± 1.2
15192 kPa	1005.1 ± 1.2
15243 kPa	1005.1 ± 1.2
15287 kPa	1005.1 ± 1.2
15332 kPa	1005.1 ± 1.2
15386 kPa	1005.2 ± 1.2
15429 kPa	1005.1 ± 1.2
15462 kPa	1005.2 ± 1.2
15497 kPa	1005.2 ± 1.2
15526 kPa	1005.2 ± 1.2
15556 kPa	1005.3 ± 1.2
15585 kPa	1005.3 ± 1.2
15621 kPa	1005.2 ± 1.2
15652 kPa	1005.4 ± 1.2
15685 kPa	1005.4 ± 1.2
15723 kPa	1005.4 ± 1.2
15754 kPa	1005.5 ± 1.2
15779 kPa	1005.4 ± 1.2
15803 kPa	1005.4 ± 1.2
15822 kPa	1005.5 ± 1.2
15842 kPa	1005.5 ± 1.2
15865 kPa	1005.6 ± 1.2
15885 kPa	1005.5 ± 1.2
15904 kPa	1005.6 ± 1.2
